Literature values, collected in US20110028498A1, “METHOD FOR EVALUATING PATIENTS FOR TREATMENT WITH DRUGS TARGETING RET RECEPTOR TYROSINE KINASE” (priority 2006, published 2011).

Tested on: RET-dependent thyroid tumour cell growth
Settings: in vitro, literature

Question: For `COc1cc2c(Nc3ccc(Br)cc3F)ncnc2cc1OCC1CCN(C)CC1` [vandetanib, 4-(4-bromo-2-fluoroanilino)-6-methoxy-7-(1-methylpiperidin-4-ylmethoxy)quinazoline], which “growth-inhibitory effect on RET-dependent thyroid tumour cell growth” value is on record?
Answer: strong growth-inhibitory effect
